From US12226393B2, “Neuroprotective compounds for amyotrophic lateral sclerosis” (THE JOHNS HOPKINS UNIVERSITY, priority 2019, dated 2025)
Entries after “also recorded” stand apart in the source; their conditions may differ. Where two headings read alike, the source gives them in different places.

What was measured:
[1] = target: T1, connexin 43 (Cx43) gap junctions (Homo sapiens, UniProt P17302); settings: cited from earlier work
T1 construct: host or cells: astrocyte cancer cell co-cultures

[2] = in vivo, cited from earlier work
[3] = test system: ALS hiPSC-A / control hiPSC-MN co-cultures; assay: MEA recording of ALS hiPSC-A co-cultured with control hiPSC-MN; type: cell-based, human; settings: for ALS astrocyte-mediated hyperexcitability (neuronal spiking and bursting activity): 10 μM, within 5 minutes
From the text: (§1) Multi-electrode array culture and recordings: Multi-electrode array (MEA) plates (MultiChannel Systems, 60MEA200/30iR-Ti-gr,) with 60 electrodes, including 59 active and 1 reference, and a MEA2100 (MultiChannel Systems) platform were used for the recording of neuronal activity in hiPSC-A/-MN co-cultures as we have previously described^50. Briefly, hiPSC-A from healthy subjects and ALS patients and hiPSC-MN from a single control line were serially co-cultured at densities of 100,000 cells/plate and 500,000 cells/plate, respectively. We analyzed the following electrophysiological parameters: spike rate, burst rate, and percentage of spiking and bursting electrodes (on the overall 59 recording electrodes). The recording of the baseline activity of MEA plates was performed every 3 days over 1-minute period for 2 weeks after initial plating. For pharmacological assays, we performed 5 minutes recordings to capture slower electrophysiological effects of HC blockers 36: baseline MEA activity for 1 minute, activity for 1 minute after 100 μl medium exchange with drug vehicle, and activity for 3 minutes after the exchange of 100 μl of medium containing the compound of interest and the drug vehicle. For analysis purposes, we considered only the electrodes with spike rate >0. Spiking and bursting activity is expressed as the mean of individual MEA plates.

[4] = test system: brain metastases; settings: xenograft and immunocompetent models; cited from earlier work
[5] = test system: FALS and SALS hiPSC-A/MN co-culture; assay: hiPSC-astrocyte / hiPSC-motor neuron direct co-culture, neuron survival by immunostaining; type: cell-based, human; settings: for neuroprotection of control hiPSC-MN in co-culture with ALS hiPSC-A: 3 days
Protocol: (§2) Human iPSC-astrocyte and hiPSC-motor neuron co-culture: Human iPSC-A form healthy subjects and ALS patients were cultured for 86 DIV and then plated in 24 well plates on glass cover-slips at a density of 20,000 cells/well. Four days later, hiPSC-MN from control samples, cultured for 60 DIV prior to use, were plated on the top of astrocytes at a density of 50,000 cells/well. This was considered day 1 of co-culture. Co-cultures were maintained in motor neuronal medium enriched with 1% FBS for a total of 14 days before fixing for immunocytochemistry. Co-culture medium was changed every third day with half medium exchange. For pharmacological assays on Cx43 HC, we used GAP19 (Tocris, 53533) at a concentration of 340 μM^21,50 and tonabersat (SB-220453) at concentrations of 1 μM, 10 μM and 100 μM^7,8 (Millipore Sigma, SML1354).

[6] = in vivo; cited from earlier work
[7] = test system: hiPSC-MN alone; assay: MEA recording of hiPSC-MN alone in culture; type: cell-based, human; settings: 10 μM
[8] = test system: transwell co-culture of FALS and SALS hiPSC-A with hiPSC-MN; assay: hiPSC-astrocyte / hiPSC-motor neuron transwell co-culture, neuron survival by immunostaining; type: cell-based, human
Protocol: Human iPSC-astrocyte and hiPSC-motor neuron co-culture in a transwell system: Human iPSC-MN from control samples were cultured for 56 DIV and then plated in 12 well plates on glass coverslips at a density of 250,000 cells/well. […] Four days later, the inserts with 90 DIV astrocytes were placed on the top of 12-well plates with 60 DIV motor neurons at the bottom. This was considered day 1 of “transwell” co-cultures. Half medium exchanges were performed from both the top and the bottom compartments. Transwell co-culture were otherwise maintained as conventional co-cultures and neurons on glass coverslips were fixed for immunocytochemistry after 14 days.

[9] = in vivo studies; cited from earlier work
[10] = cited from earlier work; for tolerability / safety: humans, phase II clinical trials
[11] = test system: control hiPSC-MN; assay: Survival of control hiPSC-MN alone or co-cultured with control hiPSC-A; type: cell-based, human; settings: several concentrations; hiPSC-MN alone or in co-culture with control hiPSC-A
Protocol: Human iPSC-motor neuron culture: Briefly, NPC differentiated with the aforementioned spinal cord patterning protocol were cultured for up to 60 DIV with “neuronal differentiating medium”^58,59. To prevent astrocyte overproliferation, neuronal cultures were treated once with 0.02 μM cytosine arabinoside (Ara-C) (Millipore Sigma) for 48 h. While the majority of these cells are Tuj1+/ChAT+, consistent with a spinal motor neuronal phenotype, a smaller subset of neurons (Tuj1+/ChAT−) is also present and consists mainly of GABAergic interneurons^58.
as §2

[12] = target: Cx43 HC (Homo sapiens, UniProt P17302); settings: cited from earlier work
[13] = test system: control hiPSC-A/-MN co-cultures; assay: Multielectrode array (MEA) recording of control hiPSC-A/-MN co-cultures; type: cell-based, human; settings: for hiPSC-Neuron spike activity: co-cultured 1 week
From the text: as §1

[14] = test system: rodent SOD1^G93A astrocyte-induced toxicity; assay: ALS astrocyte-induced MN toxicity, rodent model of ALS; type: cell-based
[15] = test system: gap junction channels; settings: cited from earlier work

T1 sequence (P17302 2-382 limits assumed, species assumed): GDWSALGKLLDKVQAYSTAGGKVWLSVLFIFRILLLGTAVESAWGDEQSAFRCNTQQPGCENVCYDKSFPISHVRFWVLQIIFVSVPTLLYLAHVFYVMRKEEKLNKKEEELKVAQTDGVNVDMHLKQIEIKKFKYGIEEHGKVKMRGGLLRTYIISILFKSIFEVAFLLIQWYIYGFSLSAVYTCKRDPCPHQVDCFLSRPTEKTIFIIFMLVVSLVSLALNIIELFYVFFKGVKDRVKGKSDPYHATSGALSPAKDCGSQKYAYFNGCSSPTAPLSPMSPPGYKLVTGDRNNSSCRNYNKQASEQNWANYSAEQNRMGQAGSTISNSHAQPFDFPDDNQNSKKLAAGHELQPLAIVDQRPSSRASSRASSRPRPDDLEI
Chain of Cx43 HC (P17302 2-382 limits assumed): as the sequence (P17302 2-382 limits assumed, species assumed) above

Q: For `CC(=O)c1ccc2c(c1)[C@H](NC(=O)c1ccc(F)c(Cl)c1)[C@H](O)C(C)(C)O2` [tonabersat, N-[(3S,4S)-6-acetyl-3-hydroxy-2,2-dimethyl-3,4-dihydro-2H-1-benzopyran-4-yl]-3-chloro-4-fluorobenzamide], which “release of IFNα and TNF” value ([1]; astrocyte cancer cell co-cultures) is on record?
A: inhibited

Q: What about the “dye transfer from astrocytes to cancer cells” value [1] of the same molecule?
A: inhibited dye transfer from astrocytes to cancer cells

Q: What about the cortical spreading depression [2] of the same molecule?
A: inhibitory effects on cortical spreading depression

Q: What about the cortical spreading depression ([2]; listed as Tonabersat) of the same molecule?
A: antagonize cortical spreading depression

Q: And the “levels of spiking and bursting activity after treatment versus untreated control co-cultures” value ([3]; 10 μM acute treatment, day 6 of co-culture)?
A: not significantly different

Q: What about the “ALS astrocyte-mediated hyperexcitability (neuronal spiking and bursting activity)” value ([3]; day 6 of co-culture) of the same molecule?
A: significantly reduced

Q: And the “ALS astrocyte-mediated hyperexcitability (neuronal spiking and bursting activity)” value ([3]; day 6 of co-culture, listed as Tonabersat)?
A: significant inhibition

Q: And the “concentration necessary to reduce ALS hiPSC-astrocyte mediated neuron spike activity” value ([3]; MEA, co-cultured 1 week, 1 minute after application)?
A: 100 µM

Q: What about the brain metastases [4] of the same molecule?
A: inhibited brain metastases

Q: And the “rescue of ChAT MNs” value ([5]; 1 μM, direct co-culture, 14 days)?
A: rescues ChAT MNs

Q: And the “neuroprotection of control hiPSC-MN in co-culture with ALS hiPSC-A” value ([5]; 10 μM, early (day 5 to day 8 of co-culture))?
A: neuroprotection of control hiPSC-MN; also recorded: Significant neuroprotection

Q: And the “neuroprotection of control hiPSC-MN in co-culture with ALS hiPSC-A” value ([5]; 10 μM, late (day 11 to day 14 of co-culture))?
A: This protection did not occur; also recorded: Significant neuroprotection was appreciated after early but not late exposure

Q: And the “rescue of ChAT MNs” value ([5]; 10 μM, direct co-culture, 14 days)?
A: rescues ChAT MNs

Q: And the “neuroprotection of hiPSC-MN” value ([5]; 100 μM, direct co-culture, 14 days)?
A: not neuroprotective

Q: And the “protection of non-MN populations (ChAT− and Isl1− neurons)” value ([5]; direct co-culture with FALS and SALS hiPSC-A)?
A: protective to non-MN populations; also recorded: can be rescued with tonabersat

Q: And the “neuroprotection of hiPSC-MN (ChAT, Isl-1) from ALS astrocyte-mediated death” value ([5]; direct co-culture, 1 μM, 10 μM and 100 μM, 14 day incubation)?
A: can protect MNs from ALS astrocyte-induced excitotoxicity; also recorded: protects hiPSC-MN from ALS astrocyte-mediated death in a dose-dependent manner; also recorded: dose-dependent neuroprotection

Q: What about the “neurogenic extravasation of plasma protein in the meninges” value [6] of the same molecule?
A: reduce neurogenic extravasation of plasma protein in the meninges

Q: And the neuronal electrophysiological activity [7]?
A: did not observe any change in neuronal electrophysiological activity; also recorded: does not result in an alteration of electrophysiological activity

Q: And the “neuroprotection of hiPSC-MN (ChAT+, Isl1+)” value ([8]; transwell co-culture, 14 days)?
A: neuroprotective effect of tonabersat was also seen; also recorded: confirms dose-dependent neuroprotection

Q: What about the “rescue of non-motor neuron cell death” value ([8]; transwell culture with FALS and SALS hiPSC-A) of the same molecule?
A: can be rescued with tonabersat

Q: What about the seizures [9] of the same molecule?
A: inhibitory effects

Q: And the tolerability / safety [10]?
A: well tolerated and safe

Q: And the tolerability / safety ([10]; listed as Tonabersat)?
A: excellent safety profile

Q: What about the “effect on attacks of migraine aura” value ([10]; study by Hauge and colleagues) of the same molecule?
A: preventive effect

Q: What about the “efficacy on non-aura attacks” value ([10]; study by Hauge and colleagues) of the same molecule?
A: no efficacy

Q: And the “hiPSC-MN survival (ChAT+ and Isl1+)” value [11]?
A: did not have any effect on hiPSC-MN survival; also recorded: no effect on ChAT+ and Isl1+ control hiPSC-MN survival

Q: What about the “concentrations that specifically block Cx43 HC” value ([12]; low concentrations) of the same molecule?
A: 1 to 10 µM

Q: What about the “neuronal spiking and bursting activity” value ([13]; 1 μM, 5 minutes after application, compared with 10 μM) of the same molecule?
A: less effective

Q: And the hiPSC-Neuron spike activity ([13]; 10 μM, 1 minute after application)?
A: reduction of hiPSC-Neuron spike activity

Q: What about the “neuronal spiking and bursting activity” value ([13]; 10 μM, within 5 minutes of application) of the same molecule?
A: significantly reduced neuronal spiking and bursting activity

Q: And the hiPSC-Neuron spike activity ([13]; 100 μM, 1 minute after application)?
A: reduction of hiPSC-Neuron spike activity

Q: What about the “hiPSC-Neuron spike rate, burst rate, number of electrodes firing and bursting” value ([13]; hiPSC-Astro/Neuron co-culture) of the same molecule?
A: reduced hiPSC-Neuron spike rate, burst rate, number of electrodes firing and bursting

Q: And the hiPSC-Neuron firing ([13]; hiPSC-Astro/Neuron co-culture, 1 and 5 minutes after application)?
A: reduced hiPSC-Neuron firing

Q: With “KQIEIKKFK [Gap19, nonapeptide derived from the cytoplasmic loop of Cx43]” as the molecule, how does the “neuroprotection against ALS astrocyte-induced MN toxicity” value [14] read?
A: can be neuroprotective

Q: And the “effect on gap junction channels” value [15]?
A: without affecting gap junction channels

Q: And the “inhibition of astroglial Cx43 hemichannels” value [12]?
A: inhibits astroglial Cx43 hemichannels in a dose-dependent manner

Q: What about the neuronal firing ([13]; hiPSC-Astro/Neuron co-culture, 1 minute after application) of the same molecule?
A: reduced neuronal firing
